# Measurements as given in US20140274984A1, “ACID ADDITION SALTS OF 5ALPHA-HYDROXY-6BETA-[2-(1H-IMIDAZOL-4-YL)ETHYLAMINO]CHOLESTAN-3BETA-OL” (INSERM (INSTITUT NATIONAL DE LA SANTÉ ET DE LA RECHERE …, priority 2011, published 2014).
# Assay: Water solubility at room temperature (shake 5 hours, filtered supernatant, HPLC with calibration curve)
# Assay type: physicochemical
# Details: shaken 5 hours
# Experimental: An adequate amount of each sample was taken. Water (50% v/v) was added to each sample, and the mixture was shaken at room temperature for 5 hours. The supernatant was filtered through a filter, and diluted with a mixed solution of water 0.1% TFA/acetonitrile as necessary to give a sample solution. The concentration (mg/ml) of the sample solution was measured by high performance liquid chromatography (HPLC) with a calibration curve method, and taken as the solubility in water at room temperature.
# HPLC Analysis Conditions:
# HPLC purifications and analyses were carried out using an LC200 series Perkin Elmer apparatus, and diode array UV detector, using an Ultrasep C18 RP 100 column from Bischoff Chromatography.
row,Substance,Solubility in water at room temperature [µg/mL]
1,"5alpha-Hydroxy-6beta-[2-(1H-imidazol-4-yl)ethylamino]cholestan-3beta-ol, acetate [Example 14]",4500
2,"5alpha-Hydroxy-6beta-[2-(1H-imidazol-4-yl)ethylamino]cholestan-3beta-ol, mesylate [Example 13]",11000
3,"5alpha-Hydroxy-6beta-[2-(1H-imidazol-4-yl)ethylamino]cholestan-3beta-ol, pamoate [Example 7]",1400
